IC50 and EC50 data for 14 molecules are collected here from ChEMBL document CHEMBL1153252, “Anti-human immunodeficiency virus activity and cytotoxicity of derivatized buckminsterfullerenes” (Bioorg Med Chem Lett, 1996).

The structures appear in SMILES notation.

Usually IC50 stands for the concentration that inhibits the measured activity by half. Low values mean greater potency in that assay, high ones weaker potency in that assay. A word on the EC50: it is the concentration needed to bring the measured effect to its halfway point. A higher EC50 goes with a need for much substance.

Experiment [1] is described as follows: Compound was evaluated for the toxicity in human PBM cells. The experiment is classed as functional, cell-based.
A further experiment concerns Vero. Kind of experiment: Compound was evaluated for the toxicity in rapidly dividing Vero cells (African Green monkeys kidney cells). The experiment is classed as functional, cell-based. The conditions noted are these: Chlorocebus sabaeus.
Experiment [2] is described as follows: Compound was evaluated for the anti-HIV-1 activity in human peripheral blood mononuclear cells infected with HIV-1LA1. Type of experiment: functional.

For the molecule `O=C(O)CCC(=O)OC1CCC23c4c5c6c7c8c9c%10c%11c%12c%13c%14c%15c%16c%17c%18c(c9c6c6c%18c9c%17c%17c%15c%15c%18c%14c%14c%12c%12c%11c8c(c8c%11c2c2c4c4c(c56)c9c5c4c4c2c2c%11c(c8%12)c%14c%18c2c4c%15c%175)C73C1)C%10C%13%16` (centres undefined), the IC50 (in experiment [1]; in the experiment on Vero) was above 100 µM in each case. The midpoint of the response in experiment [2] (Homo sapiens), the EC50, lay at 6.3 µM.
Turning to `O=C(O)CO/N=C1\CCC23c4c5c6c7c8c9c%10c%11c%12c%13c%14c%15c%16c%17c%18c(c9c6c6c%18c9c%17c%17c%15c%15c%18c%14c%14c%12c%12c%11c8c(c8c%11c2c2c4c4c(c56)c9c5c4c4c2c2c%11c(c8%12)c%14c%18c2c4c%15c%175)C73C1)C%10C%13%16` (centres undefined), the IC50 (in experiment [1]; with Vero) was above 100 µM each time. In addition, a half-maximal effect in experiment [2] (Homo sapiens) (EC50) was put at 2.9 µM.
Turning to `O=C(CCCc1ccc(C2(c3ccccc3)C34c5c6c7c8c9c%10c(c%11c%12c3c3c5c5c%13c6c6c7c7c9c9c%14c%10c%10c%11c%11c%12c%12c3c3c5c5c%13c%13c6c6c7c9c7c9c%14c%10c%10c%11c%11c%12c3c3c5c5c%13c6c7c6c9c%10c%11c3c56)C824)cc1)NC(CO)(CO)CO` (centres undefined), the IC50 (in experiment [1]; in the experiment on Vero) was above 100 µM throughout. This molecule also yielded an EC50 in experiment [2] (Homo sapiens) of 2.5 µM.
On to `c1ccc(C2(c3ccc4c(c3)OCCOCCOCCOCCOCCO4)C34C5=C6C7=C8Cc9c%10c8c8c%11c%12c%13c%14c%15c(c6c6c%16c%17c(c%18c%19c3c(c3c9c9c%20c%10c%11c%10c%11c%12c%12c%14c(c%15%16)c%14c%17c%15c%18c%16c%19c3c9c3c%16c9c%15c%14c%12c%11c9c3c%20%10)C5)C642)C7C8%13)cc1` (centres undefined), for which the IC50 (in experiment [1]; in the experiment with Vero) was above 100 µM each time. Besides, in experiment [2] (Homo sapiens), the EC50 was determined as 137 µM.
In the case of `O=C(O)CO/N=C1\C=CC23c4c5c6c7c8c9c%10c%11c%12c%13c%14c%15c%16c%17c%18c(c9c6c6c%18c9c%17c%17c%15c%15c%18c%14c%14c%12c%12c%11c8c(c8c%11c2c2c4c4c(c56)c9c5c4c4c2c2c%11c(c8%12)c%14c%18c2c4c%15c%175)C73C1)C%10C%13%16` (centres undefined), the IC50 is above 100 µM in experiment [1] and 33.9 µM in the experiment with Vero. Also, in experiment [2] (Homo sapiens), the EC50 worked out at 7.3 µM.
With `COC1C/C(=N\OCC(=O)O)CC23c4c5c6c7c8c9c(c%10c%11c2c2c4c4c%12c5c5c6c6c8c8c%13c9c9c%10c%10c%11c%11c2c2c4c4c%12c%12c5c5c6c8c6c8c%13c9c9c%10c%10c%11c2c2c4c4c%12c5c6c5c8c9c%10c2c45)C713` (centres undefined), the IC50 (in experiment [1]; with Vero) was above 100 µM throughout. Moreover, the EC50 in experiment [2] (Homo sapiens) came to 0.9 µM.
On to `CC12CCC/C(=N\OCC(=O)O)C1C13c4c5c6c7c8c9c%10c%11c%12c%13c%14c%15c(c6c6c4c4c%16c%17c%18c(c%19c%20c1c5c8c1c%20c5c%19c8c%18c%18c%19c%17c%17c4c6c%15c4c%14c6c%12c%12c%14c%11c(c91)c5c%14c8c%18c%12c6c%19c4%17)C%1623)C7C%10%13` (centres undefined), for which the IC50 (in experiment [1]; in the experiment on Vero) was above 100 µM in each case. The molecule also displayed an EC50 in experiment [2] (Homo sapiens) of 21.7 µM.
Take `CC1C=CC(COC(=O)CCC(=O)O)C23c4c5c6c7c8c9c%10c%11c%12c%13c%14c%15c%16c%17c%18c(c9c6c6c%18c9c%17c%17c%15c%15c%18c%14c%14c%12c%12c%11c8c(c8c%11c2c2c4c4c(c56)c9c5c4c4c2c2c%11c(c8%12)c%14c%18c2c4c%15c%175)C713)C%10C%13%16` (centres undefined): the IC50 (in experiment [1]; with Vero) was above 100 µM in each case. Besides, a half-maximal response in experiment [2] (Homo sapiens) (EC50) required 2.2 µM.
Consider `CN1CC23C4=C5Cc6c7c5c5c8c9c%10c%11c%12c(c2c2c%13c%14c%15c%16c%17c%18c%19c%20c(c6c6c%20c%20c%18c%18c%21c%17c%14c%14c(c%12%13)c%11c%11c9c9c%12c8c7c6c%12c%20c%18c9c%11c%14%21)=C6CC3(C1)C(C2%15)C61CN(C)CC%16%191)C4C5%10` (centres undefined), for which the concentration for half-maximal inhibition (IC50) (in experiment [1]; in the experiment with Vero) was above 100 µM throughout. For the same molecule, a half-maximal response in experiment [2] (Homo sapiens) (EC50) required 72.7 µM.
Turning to `OC1CCC23CC4=c5c6c7c8c9c%10c%11c%12c%13c%14c%15c%16c%17c(c-8c8c%18c%17c%17c(c%19c%20c%21c%22c%23c%24c%25c%26c%27c%28c(c5c(c6%10)c5c%28c%25c(c%13c%24c%14c%22c%16c%17%21)c%115)CC%27=C(C%20C%23%26)C%192C1)C%18C3C41CC(O)CCC871)C9%15%12` (centres undefined), the IC50 (in experiment [1]; in the experiment on Vero) was above 100 µM throughout. Further, a half-maximal response in experiment [2] (Homo sapiens) (EC50) required 17.6 µM.
Turning to `O=C(O)CCC(=O)NCCc1ccc(C2(c3ccc(CCNC(=O)CCC(=O)O)cc3)C34c5c6c7c8c9c5c5c%10c%11c%12c(c%13c%14c%15c%16c%17c%18c%19c%20c%21c%22c(c-%13c3c6c%22c3c7c6c7c%13c%22c%23c%24c(c9c5c5c%11c9c(c%15%12)c%16c%11c%18c(c%13c%19c7c%213)c%23c%11c9c%245)C86%22)C%14C%20%17)C%1024)cc1` (centres undefined), the IC50 (in experiment [1]; in the experiment on Vero) was above 100 µM throughout. This molecule also displayed an EC50 in experiment [2] (Homo sapiens) of 7.3 µM.
Regarding `COC1CC(=O)CC23C4=c5c6c7c8c9c%10c%11c%12c%13c%14c%15c%16c%17c%18c%19c%20c(c%21c%22c%23c(c5c5c6c6c8c%11c8c%11c%12c%12c%14c(c%15%19)c%14c%20c%22c%15c%19c%23c5c(c68)c%19c%11c%12c%14%15)C%2112)C%18C3C1(C4)C(OC)CC(=O)CC%171C(=C9C7)C%16C%10%13` (single isomer, unassigned; isomer A), in experiment [2], the EC50 is above 100 µM.
As for `COC1CC(=O)CC23C4=c5c6c7c8c9c%10c%11c%12c%13c%14c%15c%16c%17c%18c%19c%20c(c%21c%22c%23c(c5c5c6c6c8c%11c8c%11c%12c%12c%14c(c%15%19)c%14c%20c%22c%15c%19c%23c5c(c68)c%19c%11c%12c%14%15)C%2112)C%18C3C1(C4)C(OC)CC(=O)CC%171C(=C9C7)C%16C%10%13` (stereo in doubt), the IC50 (in experiment [1]; with Vero) was above 100 µM each time. In addition, in experiment [2], the EC50 stood at 7.7 µM.
For the molecule `Cc1cn([C@H]2C[C@H](N=[N+]=[N-])[C@@H](CO)O2)c(=O)[nH]c1=O` [ZIDOVUDINE], in experiment [1], the IC50 was above 100 µM. In experiment [2] (Homo sapiens), this molecule returned an EC50 of 0.004 µM.
